From US20160002247A1, “8-SUBSTITUTED IMIDAZOPYRIMIDINONE DERIVATIVE HAVING AUTOTAXIN INHIBITORY ACTIVITY” (THE UNIVERSITY OF TOKYO, priority 2013, published 2016)

Biological target: T1, Human autotaxin enzyme (Homo sapiens, UniProt Q13822)
T1 construct: purchased R&D System
Experiment: Evaluation of autotaxin inhibitor, Method C (Test Example 3): 18:0 Lyso PC, choline assay, Resorufin fluorescence
Type: biochemical
Settings: Assay Method C (Test Example 3), human autotaxin, 18:0 Lyso PC substrate; read-out: Inhibitory Activity (autotaxin enzyme inhibitory activity, IC50 class)
How it was run: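 Choline-coupled fluorescence readout (20 min, resorufin at 531/598 nm) followed a 2 h room-temperature reaction of human autotaxin with 18:0 Lyso PC substrate (added as 200 μM solution) in pH 7.5 Tris buffer containing MgCl2 and Triton X-100. Percent inhibition scaled to no-compound (0%) and no-enzyme (100%) wells and plotted versus concentration.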

| IC50 [nM] | SMILES |
| --- | --- |
| 10 to 100 | CCCCCn1c(OCC2(F)COC2)cc(=O)n2cc(-c3ccc(Cl)cc3)nc12 [Compound 718] |
| > 1000 | CCCCCn1c(N2CCN(C(=O)OC(C)(C)C)C[C@H]2C(=O)O)cc(=O)n2cc(-c3ccc(Cl)cc3)nc12 [Compound 641] |
| < 10 | O=C(O)[C@H](Cc1ccccc1)NC(=O)[C@@H]1CCCN1c1cc(=O)n2cc(-c3ccc(Cl)cc3)nc2n1Cc1ccccc1 [Compound 743] |
| 100 to 1000 | CCCCCn1c(N2CCC[C@H]2C(=O)NC2CCCNC2=O)cc(=O)n2cc(-c3ccc(Cl)cc3)nc12 (stereo partly shown) [Compound 710] |
| < 10 | CCCCCn1c(N2CCC[C@H]2C(=O)NCCCCCN2CCOCC2)cc(=O)n2cc(-c3ccc(Cl)cc3)nc12 [Compound 654] |
| 100 to 1000 | CCn1c(N2CCC[C@H]2C(=O)N[C@@H](Cc2ccccc2)C(=O)O)cc(=O)n2cc(-c3ccc(Cl)cc3)nc12 [Compound 755] |
| < 10 | CCCCCn1c(N2CCC[C@H](C(=O)NCC(=O)O)C2)cc(=O)n2cc(-c3ccc(Cl)cc3)nc12 [Compound 629] |
| > 1000 | CCCCCn1c(N2CCN(C(=O)OC(C)(C)C)C[C@@H]2C(=O)O)cc(=O)n2cc(-c3ccc(Cl)cc3)nc12 [Compound 640] |
| > 1000 | CCn1c(N2C[C@H](O)C[C@H]2C(=O)NCC(=O)O)cc(=O)n2cc(-c3ccc(Cl)cc3)nc12 [Compound 762] |
| 10 to 100 | CCCCCn1c(-c2ccc(C(=O)NCCc3cncn3C)cc2)cc(=O)n2cc(-c3ccc(Cl)cc3)nc12 [Compound 511] |
| 10 to 100 | CCCCCn1c(-c2cnc(C#N)nc2)cc(=O)n2cc(-c3ccc(Cl)cc3)nc12 [Compound 530] |
| 10 to 100 | N#CCCCCn1c(N2CCC(C(=O)O)CC2)cc(=O)n2cc(-c3ccc(C#N)cc3)nc12 [Compound 284] |
| 10 to 100 | O=C(NCCN1CC2(COC2)C1)c1ccc(-c2cc(=O)n3cc([C@H]4CC[C@H](C(F)(F)F)CC4)nc3n2CCCC(F)(F)F)cc1 [Compound 165] |
| 100 to 1000 | CCCCCn1c(N2CCC[C@H]2C(=O)NCC(C)C(=O)OC)cc(=O)n2cc(-c3ccc(Cl)cc3)nc12 (stereo partly shown) [Compound 571] |
| < 10 | CCCCCn1c(-c2ccc(C(=O)NCCCn3ccnc3)cc2)cc(=O)n2cc(-c3ccc(Cl)cc3)nc12 [Compound 505] |
| 100 to 1000 | CCCCCn1c(N2CCC3CNCC32)cc(=O)n2cc(-c3ccc(Cl)cc3)nc12 (stereo not shown) [Compound 329] |
| 10 to 100 | CCCCCn1c(-c2cccnc2)cc(=O)n2cc(-c3ccc(Cl)cc3)nc12 [Compound 407] |
| 10 to 100 | CCCCCn1c(-c2ccc(C(=O)NCCC(=O)N3CCOCC3)cc2)cc(=O)n2cc(-c3ccc(Cl)cc3)nc12 [Compound 517] |
| 10 to 100 | CCCCCn1c(OCc2ccc(C(=O)O)cc2)cc(=O)n2cc(-c3ccc(Cl)cc3)nc12 [Compound 194] |
| 10 to 100 | CCCCCn1c(N(Cc2ccc(C(=O)OC)cc2)C(C)=O)cc(=O)n2cc(-c3ccc(Cl)cc3)nc12 [Compound 566] |
| 10 to 100 | CCCCCn1c(-c2ccc(C(=O)NCCNC)cc2)cc(=O)n2cc(-c3ccc(Cl)cc3)nc12 [Compound 522] |
| 10 to 100 | CCCCCn1c(-c2ccc(C(=O)NCCS(=O)(=O)N3CCCC3)cc2)cc(=O)n2cc(-c3ccc(Cl)cc3)nc12 [Compound 513] |
| 100 to 1000 | CCCCCn1c(N2CCNC[C@@H]2C(=O)NCCC(=O)O)cc(=O)n2cc(-c3ccc(Cl)cc3)nc12 [Compound 663] |
| 10 to 100 | CCCCCn1c(N2C[C@@H](O)C[C@H]2C(=O)NCCC(=O)OCC)cc(=O)n2cc(-c3ccc(Cl)cc3)nc12 [Compound 594] |
| < 10 | C[C@H](NC(=O)[C@@H]1C[C@@H](O)CN1c1cc(=O)n2cc(-c3ccc(Cl)cc3)nc2n1Cc1ccccc1)C(=O)O [Compound 754] |
| 10 to 100 | CCCCCn1c(N2CCCC(CC(=O)O)C2)cc(=O)n2cc(-c3ccc(Cl)cc3)nc12 (stereo not shown) [Compound 319] |
| 10 to 100 | CCCCCn1c(N2CCC[C@H]2C(=O)N(C)CCCO)cc(=O)n2cc(-c3ccc(Cl)cc3)nc12 [Compound 346] |

| IC50 [nM] | SMILES |
| --- | --- |
| < 10 | CCCCCn1c(N2CCC[C@H]2C(=O)NCC(=O)O)cc(=O)n2cc(-c3ccc(Cl)cc3)nc12 [Compound 348] |
| 10 to 100 | CCCCCn1c(O[C@H]2CCNC2)cc(=O)n2cc(-c3ccc(Cl)cc3)nc12 [Compound 572] |
| < 10 | CCCCCn1c(-c2ccc(C(=O)NCCc3ccc(S(C)(=O)=O)cc3)cc2)cc(=O)n2cc(-c3ccc(Cl)cc3)nc12 [Compound 512] |
| 100 to 1000 | CCCCCn1c(-c2ccc(C(=O)OCC)cc2)cc(=O)n2cc(-c3ccc(Cl)cc3)nc12 [Compound 453] |
| 10 to 100 | CCCCCn1c(N2CCC[C@H]2C(=O)N[C@H](C)C(=O)OC)cc(=O)n2cc(-c3ccc(Cl)cc3)nc12 [Compound 692] |
| 10 to 100 | CCCCCn1c(-c2cc(NC(C)=O)cc(C(=O)O)c2)cc(=O)n2cc(-c3ccc(Cl)cc3)nc12 [Compound 427] |
| 100 to 1000 | CCCCCn1c(N2CCC(NS(C)(=O)=O)CC2)cc(=O)n2cc(-c3ccc(Cl)cc3)nc12 [Compound 298] |
| > 1000 | CCCCCn1c(N2CC(C)CC(C)C2)cc(=O)n2cc(-c3ccc(Cl)cc3)nc12 (stereo not shown) [Compound 303] |
| 100 to 1000 | CCCCCn1c(OC2CCNCC2)cc(=O)n2cc(-c3ccc(Cl)cc3)nc12 [Compound 538] |
| 100 to 1000 | CCCCCn1c(N2CCN(C(=O)OC(C)(C)C)C[C@@H]2C(=O)NCC(=O)O)cc(=O)n2cc(-c3ccc(Cl)cc3)nc12 [Compound 631] |
| 10 to 100 | CCCCCn1c(N(C)CC(=O)NCCC(=O)O)cc(=O)n2cc(-c3ccc(Cl)cc3)nc12 [Compound 618] |
| 100 to 1000 | CCCCCn1c(N2CCC[C@H]2C(=O)NCCN2CCCCC2)cc(=O)n2cc(-c3ccc(Cl)cc3)nc12 [Compound 643] |
| 100 to 1000 | CCCCCn1c(-c2ccc(C(=O)N3CCC4(CN(C(=O)OC(C)(C)C)C4)C3)cc2)cc(=O)n2cc(-c3ccc(Cl)cc3)nc12 [Compound 491] |
| 10 to 100 | CCCCCn1c(-c2ccc(C(=O)NCCN(C)C)cc2)cc(=O)n2cc(-c3ccc(Cl)cc3)nc12 [Compound 413] |
| 100 to 1000 | CCn1c(N2C[C@H](O)C[C@H]2C(=O)NC(C)(C)C(=O)O)cc(=O)n2cc(-c3ccc(Cl)cc3)nc12 [Compound 765] |
| 100 to 1000 | CCCCCn1c(OCC2CCCN2C(=O)OC(C)(C)C)cc(=O)n2cc(-c3ccc(Cl)cc3)nc12 (stereo not shown) [Compound 554] |
| 100 to 1000 | CCCCCn1c(N2CCC(C(F)(F)F)C2)cc(=O)n2cc(-c3ccc(Cl)cc3)nc12 (stereo not shown) [Compound 323] |
| < 10 | CCCCCn1c(N2CCC[C@H]2C(=O)NC2(C(=O)O)CC2)cc(=O)n2cc(-c3ccc(Cl)cc3)nc12 [Compound 679] |
| 100 to 1000 | Cn1c(N2CCC[C@H]2C(=O)N[C@@H](Cc2ccccc2)C(=O)O)cc(=O)n2cc(-c3ccc(Cl)cc3)nc12 [Compound 767] |
| 10 to 100 | CCCCCn1c(N2CCC[C@H]2C(=O)NC2CCNC2=O)cc(=O)n2cc(-c3ccc(Cl)cc3)nc12 (stereo partly shown) [Compound 700] |
| < 10 | CCCCCn1c(-c2cnc(C(=O)NCCN3CC4(COC4)C3)nc2)cc(=O)n2cc(-c3ccc(Cl)cc3)nc12 [Compound 535] |
| 100 to 1000 | CCCCCn1c(N2CCC[C@H]2C(=O)NCCCn2ccnc2)cc(=O)n2cc(-c3ccc(Cl)cc3)nc12 [Compound 335] |
| < 10 | CCCCCn1c(N2CCC[C@H]2C(=O)NC(C)(C)C(C)C(=O)O)cc(=O)n2cc(-c3ccc(Cl)cc3)nc12 (stereo partly shown) [Compound 676] |
| > 1000 | CCCCCn1c(N2CCC[C@H]2C(=O)O)cc(=O)n2cc(-c3ccc(Cl)cc3)nc12 [Compound 334] |
| < 10 | CCCCCn1c(N2C[C@@H](O)C[C@H]2C(=O)N[C@@H](Cc2ccccc2)C(=O)O)cc(=O)n2cc(-c3ccc(Cl)cc3)nc12 [Compound 775] |
| < 10 | CCCCCn1c(-c2ccc(C(=O)NC3COC3)cc2)cc(=O)n2cc(-c3ccc(Cl)cc3)nc12 [Compound 490] |

Same assay, conditions: Assay Method C, human autotaxin, 18:0 Lyso PC substrate; read-out: Inhibitory Activity

| IC50 [nM] | SMILES |
| --- | --- |
| 100 to 1000 | CCOC(=O)c1cccc(Cc2cn(CCCCC#N)c3nc(-c4ccc(Cl)cc4)cn3c2=O)c1 [Compound 821] |
| 10 to 100 | CCCCCn1cc(Cc2cccc(C(=O)O)c2)c(=O)n2cc(-c3ccc(Cl)cc3)nc12 [Compound 820] |
| 100 to 1000 | CCCCCn1c(N2CCCC[C@H]2C)cc(=O)n2cc(-c3ccc(Cl)cc3)nc12 [Compound 814] |
| > 1000 | CS(=O)(=O)CCOCCNC(=O)Cc1cn(CCCC(F)(F)F)c2nc(-c3ccc(Cl)cc3)cn2c1=O [Compound 864] |
| 100 to 1000 | O=C(Cc1cn(CCCC(F)(F)F)c2nc(-c3ccc(Cl)cc3)cn2c1=O)NCc1cc(=O)[nH]o1 [Compound 842] |
| 10 to 100 | CCCCCn1c(N2CCC[C@H]2C(=O)NC(C(N)=O)c2ccccc2)cc(=O)n2cc(-c3ccc(Cl)cc3)nc12 (stereo partly shown) [Compound 789] |
| 100 to 1000 | C[C@H](NC(=O)[C@@H]1C[C@@H](O)CN1c1cc(=O)n2cc(-c3ccc(Cl)cc3)nc2n1C)C(=O)O [Compound 782] |
| > 1000 | Cn1c(N2C[C@H](O)C[C@H]2C(=O)NC(C)(C)C(=O)O)cc(=O)n2cc(-c3ccc(Cl)cc3)nc12 [Compound 781] |
| 100 to 1000 | CN(CC#N)C(=O)Cc1cn(CCCC(F)(F)F)c2nc(-c3ccc(Cl)cc3)cn2c1=O [Compound 834] |
| < 10 | CCCCCn1c(N2CCC[C@H]2C(=O)NC(C(=O)O)C(F)(F)F)cc(=O)n2cc(-c3ccc(Cl)cc3)nc12 (stereo partly shown) [Compound 815] |
| 100 to 1000 | Cc1noc(CNC(=O)Cc2cn(CCCC(F)(F)F)c3nc(-c4ccc(Cl)cc4)cn3c2=O)n1 [Compound 863] |
| 10 to 100 | CCCCCn1c(N2CCC[C@H]2C(=O)Nc2nn[nH]n2)cc(=O)n2cc(-c3ccc(Cl)cc3)nc12 [Compound 783] |
| 100 to 1000 | CCCCCn1c(N2CCC[C@H]2C(=O)NCC(O)CC(F)(F)F)cc(=O)n2cc(-c3ccc(Cl)cc3)nc12 (stereo partly shown) [Compound 786] |

Same assay, conditions: Assay Method: Method C (Test Example 3); read-out: Inhibitory Activity (Enzyme Inhibitory Activity, IC50)

| IC50 [nM] | SMILES |
| --- | --- |
| > 1000 | CCC(O)CCn1c(C)cc(=O)n2cc(-c3ccc(Cl)cc3)nc12 (stereo not shown) [Compound 47] |
